# Assay results as given in patent US7671181B2, “Polynucleotides encoding coccidian parasite casein kinase I, a chemotherapeutic target for antiprotozoal agents” (Merck Sharp & Dohme Corp., priority 2004, dated 2010).
# Biological target: T1, TgCDPK1 (Toxoplasma gondii, UniProt Q9BJF5)
# T1 construct: The TgCDPK1 open reading frame was amplified by PCR from a Toxoplasma cDNA library; made in house
# Test: CDPK assay with Syntide-2, T. gondii CDPK1
# Assay type: biochemical
# Details: 0.2 μM hymenialdisine or 1 μM purvalanol B; CKI phosphopeptide substrate
# Experimental: Protein kinase assays—Casein kinase activity was assayed essentially as described (Donald, R. G. K. et al., 2002, supra) using 96-well phosphocellulose plates (MAPH-NOB, Millipore; Billerica, Mass.) to capture ^33P-phosphorylated peptide or casein substrates. Kinase reactions were carried out in 40 μl volumes containing 25 mM Hepes, pH 7.4, 10 mM MgCl2, 20 mM β-glycerophosphate, 1 mM DTT, 250 μM substrate, 1 mg/mL BSA, 2 μM ATP, and 0.01 μM [γ-^33P]ATP (Perkin-Elmer, 3000 Ci/mmol). The reactions were initiated by the addition of enzyme and incubated at room temperature for 60 min. Casein (5% solution), partially dephosphorylated α-casein and β-casein were obtained from Sigma.
# A variety of commercially available peptide substrates were evaluated. From Calbiochem (San Diego, Calif.): CKI substrate (RRKDLHDDEEDEAMSITA; SEQ ID NO:13); CKII substrate (RRADDSDDDDD; SEQ ID NO:14); Syntide-2 substrate (PLARTLSVAGLPGKK; SEQ ID NO:15); CaM kinase II substrate (281-291) (MHKNETVECLK; SEQ ID NO:16). From Promega: CKI substrate (DDDEESITRR; SEQ ID NO:17) and kemptide (LRRASLG; SEQ ID NO:18). From New England Biolabs (Beverly, Mass.): CKI phosphopeptide substrate (KRRRALS(p)VASLPGL; SEQ ID NO:19), and CKII substrate (RRREEETEEE; SEQ ID NO:20). PKG assays were performed with kemptide as substrate and 10 μM cGMP. CDPK was assayed with Syntide-2 substrate and in the presence of 100 μM CaCl2.
# Purification of recombinant TgCDPK1 and TgPKG—The TgCDPK1 open reading frame was amplified by PCR from a Toxoplasma cDNA library, using primers based on the published sequence (Kieschnick et al., 2001, supra): sense primer, […] (SEQ ID NO:44); and, antisense primer, […] (SEQ ID NO:45). A C-terminal FLAG epitope tag was appended to the TgCDPK1 open reading frame by an additional round of PCR amplification (KOD polymerase) and the resulting DNA fragment was sub-cloned into a tubulin promoter expression vector (Donald and Liberator, 2002, supra). […]
# T1 sequence (Q9BJF5 entry or part of it): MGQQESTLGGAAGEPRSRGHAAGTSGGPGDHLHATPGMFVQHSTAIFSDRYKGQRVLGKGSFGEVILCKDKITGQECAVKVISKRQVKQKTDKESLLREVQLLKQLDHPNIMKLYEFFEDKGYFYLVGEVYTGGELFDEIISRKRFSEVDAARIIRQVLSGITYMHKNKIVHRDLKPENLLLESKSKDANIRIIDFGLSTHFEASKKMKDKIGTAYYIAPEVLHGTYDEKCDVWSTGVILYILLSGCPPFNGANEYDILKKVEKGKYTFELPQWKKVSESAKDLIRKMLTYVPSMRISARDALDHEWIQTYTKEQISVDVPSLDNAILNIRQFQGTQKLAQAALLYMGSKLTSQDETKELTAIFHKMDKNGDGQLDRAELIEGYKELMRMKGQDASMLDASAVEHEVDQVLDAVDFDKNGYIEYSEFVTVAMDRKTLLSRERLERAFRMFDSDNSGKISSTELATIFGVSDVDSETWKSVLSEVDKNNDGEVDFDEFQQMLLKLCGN
structure (smiles),measurement,value
CC(C)[C@H](CO)Nc1nc(Nc2ccc(C(=O)O)c(Cl)c2)c2ncn(C(C)C)c2n1 [purvalanol B],sensitivity of phosphopeptide kinase activity of fractions 14 and 15 (TgCDPK1),partial sensitivity
